One test has as its system Haemonchus contortus L3. Nature of the test: Haemonchus contortus, Larvae Stage 3 (HcL3) In Vitro Assay. The following applies: Haemonchus contortus.
For test [1], the system named is Dirofilaria immitis microfilariae. Nature of the test: Dirofilaria immitis, Microfilariae (DiMF) In Vitro Assay. The following applies: Dirofilaria immitis.
The target of test [2] is T1, bovine vesicular acetylcholine transporter (VAChT) (Bos taurus, UniProt E1BK36).
T1 sequence (E1BK36 1-524): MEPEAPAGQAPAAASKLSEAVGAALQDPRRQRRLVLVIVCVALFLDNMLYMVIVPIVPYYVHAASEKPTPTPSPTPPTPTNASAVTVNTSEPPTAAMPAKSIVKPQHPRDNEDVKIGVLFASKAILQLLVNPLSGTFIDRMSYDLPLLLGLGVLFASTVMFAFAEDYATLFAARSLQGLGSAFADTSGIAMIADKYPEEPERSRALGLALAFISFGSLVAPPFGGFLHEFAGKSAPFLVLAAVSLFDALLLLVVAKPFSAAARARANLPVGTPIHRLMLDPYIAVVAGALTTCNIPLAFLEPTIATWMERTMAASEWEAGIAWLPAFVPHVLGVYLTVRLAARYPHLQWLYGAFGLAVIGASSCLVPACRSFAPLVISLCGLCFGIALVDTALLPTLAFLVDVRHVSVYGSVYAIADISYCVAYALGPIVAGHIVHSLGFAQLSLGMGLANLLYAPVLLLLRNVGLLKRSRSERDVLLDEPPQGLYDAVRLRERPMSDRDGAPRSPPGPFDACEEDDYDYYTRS
The test can be described thus: Radioligand Binding Assay. The following applies: Bovine binding Ki, CHO-K1 membranes with recombinant bovine VAChT, [3H]Compound X6 0.3 nM.
Description: To measure binding affinity, CHO-K1 cells recombinantly expressing the bovine VAChT was generated as a stable cell line and subsequently used to produce membrane preparations.
Radioligand binding assays were conducted in disposable polypropylene 96-well plates. VAChT competition assays were initiated by the addition of bovine recombinant membrane homogenate (50 μg/well) in assay buffer (50 mM Tris-HCl, 120 mM NaCl, 5 mM KCl, 1 mM MgCl, and 2 mM CaCl, pH 7.4) containing [^3H]Compound X6 (0.3 nM) with or without competing ligand. The assay was allowed to equilibrate for 120 minutes at room temperature, before being filtered onto GF/C unifilter plates pre-coated in 0.3% polyethylenimine (Perkin Elmer Life and Analytical Sciences, Boston, Mass.) with a Filtermate 96 harvester (PerkinElmer Life and Analytical Sciences). Filters were washed in ice-cold 50 mM Tris-HCl, pH 7.4 buffer and then counted for radioactivity in a TopCount microplate scintillation counter after addition of 50 μL Microscint 20 (PerkinElmer). Non-specific binding was measured in the presence of 10 μM Compound X6. Apparent dissociation constants (Ki values) from the competition experiments were calculated using an iterative nonlinear regression curve-fitting program (GraphPAD Prism 6.0 Software, San Diego, Calif.) and are reported in Table 2.

Setting [3] is: 96 h, read-out: HcL3 MEC, Minimal Effective Concentration whereby worm motility is inhibited by approximately 70%, 37° C., tested 0.001-100 μM.
Setting [4] is: 72 h, read-out: Di MF, MEC, decrease in microfilariae motility by visual assessment, curve starting at 100 μM.
Setting [5] is: 96 hours, 37° C., read-out: HcL3 MEC.

Where two headings read alike, the source gives them in different places.

`O=C(NCc1ccc([N+](=O)[O-])cc1)N1CC2(CCN(C/C=C/c3ccc(Cl)c(Cl)c3)CC2)c2c1ccc1scnc21` [Example 17, (E)-1-(3-(3,4-dichlorophenyl)allyl)-N-(4-nitrobenzyl)spiro[piperidine-4,8′-thiazolo[4,5-e]indole]-6′(7′H)-carboxamide]: the minimal effective concentration stood at 100 µM in the test on Haemonchus contortus L3 (setting [3]) and 10 µM in test [1] (setting [4]). The Ki in test [2] was found to be 11600 nM.
For the molecule `O=C(NCc1ccc(O)cc1)N1CC2(CCN(C/C=C/c3ccc(Cl)c(Cl)c3)CC2)c2c1ccc1scnc21` [Example 18, (E)-1-(3-(3,4-dichlorophenyl)allyl)-N-(4-hydroxybenzyl)spiro[piperidine-4,8′-thiazolo[4,5-e]indole]-6′(7′H)-carboxamide], the values for the minimal effective concentration (in the test with Haemonchus contortus L3 (setting [3]); in test [1] (setting [4])) were 100 µM and 43.5 µM, respectively. In addition, the Ki in test [2] turned out to be 2220 nM.
Regarding `O=C(NCc1ccc(Cl)cc1)N1CC2(CCN(C/C=C/c3ccc(Cl)c(Cl)c3)CC2)c2c1ccc1scnc21` [Example 20, (E)-N-(4-chlorobenzyl)-1-(3-(3,4-dichlorophenyl)allyl)spiro[piperidine-4,8′-thiazolo[4,5-e]indole]-6′(7′H)-carboxamide], the values for the minimal effective concentration (in the test on Haemonchus contortus L3 (setting [3]); in test [1] (setting [4])) were 100 µM and 13.5 µM, respectively. The Ki in test [2] came to 2120 nM.
Take `O=C(NCc1cnc(Cl)s1)N1CC2(CCN(C/C=C/c3ccc(Cl)c(Cl)c3)CC2)c2c1ccc1scnc21` [Example 21, (E)-N-((2-chlorothiazol-5-yl)methyl)-1-(3-(3,4-dichlorophenyl)allyl)spiro[piperidine-4,8′-thiazolo[4,5-e]indole]-6′(7′H)-carboxamide]: the minimal effective concentration is 69.1 µM with Haemonchus contortus L3 (setting [5]) and 10 µM in test [1] (72 hours, read-out: Di MF). Besides, the inhibition constant (Ki) in test [2] came out at 105 nM.
As for `O=C(NCc1cncs1)N1CC2(CCN(C/C=C/c3ccc(Cl)c(Cl)c3)CC2)c2c1ccc1scnc21` [Example 22, (E)-1-(3-(3,4-dichlorophenyl)allyl)-N-(thiazol-5-ylmethyl)spiro[piperidine-4,8′-thiazolo[4,5-e]indole]-6′(7′H)-carboxamide], the results for the minimal effective concentration (in the test with Haemonchus contortus L3 (setting [3]); in test [1] (setting [4])) were 100 µM and 10 µM, respectively. Besides, in test [2], the Ki is 131 nM.
For `O=C(NCc1nccs1)N1CC2(CCN(C/C=C/c3ccc(Cl)c(Cl)c3)CC2)c2c1ccc1scnc21` [Example 23, (E)-1-(3-(3,4-dichlorophenyl)allyl)-N-(thiazol-2-ylmethyl)spiro[piperidine-4,8′-thiazolo[4,5-e]indole]-6′(7′H)-carboxamide], the minimal effective concentration in the test on Haemonchus contortus L3 (setting [3]) amounted to 100 µM; in test [1] (setting [4]), 10 µM. In test [2], the Ki was determined as 205 nM.
Turning to `O=C(NCc1cscn1)N1CC2(CCN(C/C=C/c3ccc(Cl)c(Cl)c3)CC2)c2c1ccc1scnc21` [Example 24, (E)-1-(3-(3,4-dichlorophenyl)allyl)-N-(thiazol-4-ylmethyl)spiro[piperidine-4,8′-thiazolo[4,5-e]indole]-6′(7′H)-carboxamide], the minimal effective concentration came to 100 µM in the test with Haemonchus contortus L3 (setting [3]) and 33 µM in test [1] (setting [4]). Besides, the Ki in test [2] amounted to 1100 nM.
With `O=C(NCC1CCCCC1)N1CC2(CCN(C/C=C/c3ccc(Cl)c(Cl)c3)CC2)c2c1ccc1scnc21` [Example 25, (E)-N-(cyclohexylmethyl)-1-(3-(3,4-dichlorophenyl)allyl)spiro[piperidine-4,8′-thiazolo[4,5-e]indole]-6′(7′H)-carboxamide], the minimal effective concentration in the test with Haemonchus contortus L3 (setting [3]) was 100 µM; in test [1] (setting [4]) it was 13.5 µM. In addition, in test [2], the inhibitory constant (Ki) came out at 7590 nM.
Turning to `Cn1cc(CNC(=O)N2CC3(CCN(C/C=C/c4ccc(Cl)c(Cl)c4)CC3)c3c2ccc2scnc32)cn1` [Example 26, (E)-1-(3-(3,4-dichlorophenyl)allyl)-N-((1-methyl-1H-pyrazol-4-yl)methyl)spiro[piperidine-4,8′-thiazolo[4,5-e]indole]-6′(7′H)-carboxamide], the minimal effective concentration (in the test on Haemonchus contortus L3 (setting [3]); in test [1] (setting [4])) was 10 µM in each case. Further, the Ki in test [2] came out at 27.8 nM.
Turning to `Cn1nccc1CNC(=O)N1CC2(CCN(C/C=C/c3ccc(Cl)c(Cl)c3)CC2)c2c1ccc1scnc21` [Example 27, (E)-1-(3-(3,4-dichlorophenyl)allyl)-N-((1-methyl-1H-pyrazol-5-yl)methyl)spiro[piperidine-4,8′-thiazolo[4,5-e]indole]-6′(7′H)-carboxamide], the minimal effective concentration came to 10 µM with Haemonchus contortus L3 (setting [5]) and 10 µM in test [1] (72 hours, read-out: Di MF). Also, the Ki in test [2] turned out to be 22.6 nM.
For `Cn1ccc(CNC(=O)N2CC3(CCN(C/C=C/c4ccc(Cl)c(Cl)c4)CC3)c3c2ccc2scnc32)n1` [Example 28, (E)-1-(3-(3,4-dichlorophenyl)allyl)-N-((1-methyl-1H-pyrazol-3-yl)methyl)spiro[piperidine-4,8′-thiazolo[4,5-e]indole]-6′(7′H)-carboxamide], the minimal effective concentration with Haemonchus contortus L3 (setting [3]) was found to be 100 µM; in test [1] (setting [4]), 10 µM. In addition, the inhibition constant Ki in test [2] amounted to 511 nM.
Consider `O=C(NCc1cocn1)N1CC2(CCN(C/C=C/c3ccc(Cl)c(Cl)c3)CC2)c2c1ccc1scnc21` [Example 29, (E)-1-(3-(3,4-dichlorophenyl)allyl)-N-(oxazol-4-ylmethyl)spiro[piperidine-4,8′-thiazolo[4,5-e]indole]-6′(7′H)-carboxamide], for which the minimal effective concentration was 100 µM in the test with Haemonchus contortus L3 (setting [3]) and 10 µM in test [1] (setting [4]). Further, the Ki in test [2] turned out to be 367 nM.
The matching figures for `CC(C)CNC(=O)N1CC2(CCN(C/C=C/c3ccc(Cl)c(Cl)c3)CC2)c2c1ccc1scnc21` [Example 31, (E)-1-(3-(3,4-dichlorophenyl)allyl)-N-isobutylspiro[piperidine-4,8′-thiazolo[4,5-e]indole]-6′(7′H)-carboxamide]: 100 µM, 3.3 µM and 846 nM.
Turning to `O=C(NCC1CC1)N1CC2(CCN(C/C=C/c3ccc(Cl)c(Cl)c3)CC2)c2c1ccc1scnc21` [Example 32, (E)-N-(cyclopropylmethyl)-1-(3-(3,4-dichlorophenyl)allyl)spiro[piperidine-4,8′-thiazolo[4,5-e]indole]-6′(7′H)-carboxamide], the minimal effective concentration in the test on Haemonchus contortus L3 (setting [3]) amounted to 100 µM; in test [1] (setting [4]), 3.3 µM. For the same molecule, the Ki in test [2] worked out at 136 nM.
On the same counts, the results for `O=C(NCC1CCCC1)N1CC2(CCN(C/C=C/c3ccc(Cl)c(Cl)c3)CC2)c2c1ccc1scnc21` [Example 33, (E)-N-(cyclopentylmethyl)-1-(3-(3,4-dichlorophenyl)allyl)spiro[piperidine-4,8′-thiazolo[4,5-e]indole]-6′(7′H)-carboxamide] are 100 µM, 10 µM and 1640 nM.
As for `O=C(NCc1ccnnc1)N1CC2(CCN(C/C=C/c3ccc(Cl)c(Cl)c3)CC2)c2c1ccc1scnc21` [Example 37, (E)-1-(3-(3,4-dichlorophenyl)allyl)-N-(pyridazin-4-ylmethyl)spiro[piperidine-4,8′-thiazolo[4,5-e]indole]-6′(7′H)-carboxamide], the minimal effective concentration in the test on Haemonchus contortus L3 (setting [3]) was determined as 100 µM; in test [1] (setting [4]), 6.9 µM. The Ki in test [2] came to 1210 nM.
The matching figures for `O=C(NCc1ccnc(Cl)c1)N1CC2(CCN(C/C=C/c3ccc(F)cc3)CC2)c2c1ccc1scnc21` [Example 38, (E)-N-((2-chloropyridin-4-yl)methyl)-1-(3-(4-fluorophenyl)allyl)spiro[piperidine-4,8′-thiazolo[4,5-e]indole]-6′(7′H)-carboxamide]: 10 µM, 3.3 µM and 45.6 nM.
Regarding `O=C(NCc1ccnc(Cl)c1)N1CC2(CCN(C/C=C/c3ccc(Cl)cc3)CC2)c2c1ccc1scnc21` [Example 39, (E)-1-(3-(4-chlorophenyl)allyl)-N-((2-chloropyridin-4-yl)methyl)spiro[piperidine-4,8′-thiazolo[4,5-e]indole]-6′(7′H)-carboxamide], the minimal effective concentration in the test with Haemonchus contortus L3 (setting [3]) was found to be 6.9 µM; in test [1] (setting [4]) it was 3.3 µM. The Ki in test [2] stood at 90 nM.
`O=C(NCc1ccnc(Cl)c1)N1CC2(CCN(C/C=C/c3ccc(Cl)c(Cl)c3)CC2)c2c1ccc1scnc21` [Example 40, (E)-N-((2-chloropyridin-4-yl)methyl)-1-(3-(3,4-dichlorophenyl)allyl)spiro[piperidine-4,8′-thiazolo[4,5-e]indole]-6′(7′H)-carboxamide]: the minimal effective concentration with Haemonchus contortus L3 (setting [3]) worked out at 4.8 µM; in test [1] (setting [4]), 5.7 µM. Further, the inhibitory constant (Ki) in test [2] worked out at 110 nM.
As for `O=C(NCc1ccnc(Cl)c1)N1CC2(CCN(C/C=C/c3ccc(C(F)(F)F)cn3)CC2)c2c1ccc1scnc21` [Example 41, (E)-N-((2-chloropyridin-4-yl)methyl)-1-(3-(5-(trifluoromethyl)pyridin-2-yl)allyl)spiro[piperidine-4,8′-thiazolo[4,5-e]indole]-6′(7′H)-carboxamide], the minimal effective concentration in the test with Haemonchus contortus L3 (setting [3]) was > 100 µM; in test [1] (setting [4]) it was 33 µM. For the same molecule, the Ki in test [2] came to 428 nM.

As usually defined, the Ki is the dissociation constant of the complex between target and ligand, obtained from inhibition or displacement.

These data come from patent US20160296499A1, “Spiroindoline Antiparasitic Derivatives” (ZOETIS SERVICES LLC, priority 2013, published 2016).
